Results reported in patent US9023789B2, “Amylin analogs and pharmaceutical compositions thereof” (Novo Nordisk A/S, priority 2012, dated 2015).
Numbered stars: 1 amine (or outer) side, 2 acyl side, 3 side chain; on linkers, the order of the positions; unused ones are H or OH. Bridge positions count the residues as written; N and C are the ends. Side chains are listed from the residue outwards. Peptide text beside a SMILES is read from it. * marks the point of attachment. C20 diacid = O=C(O)CCCCCCCCCCCCCCCCCCC(=O)*; γGlu = O=C(O)[C@H](CCC(=O)[*:2])N[*:1]

Legend:
[1] = target: T1, human amylin receptor (membranes from Amylin 3(a)/CRE-luc cells) (Homo sapiens, UniProt O60896+P30988); test: ASSAY (V) binding to the human amylin receptor (SPA, 125I-rat amylin); settings: for IC50: Table 4, read-out: hAmylin-R bind IC50;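 on all read-outs here: competition binding of cell membranes (35 ng/µL) mixed with SPA beads in 384-well plates at 40 µL total volume, read by scintillation counting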
T1 construct: expressed in transfected cells
T1 sequence (P30988 25-474): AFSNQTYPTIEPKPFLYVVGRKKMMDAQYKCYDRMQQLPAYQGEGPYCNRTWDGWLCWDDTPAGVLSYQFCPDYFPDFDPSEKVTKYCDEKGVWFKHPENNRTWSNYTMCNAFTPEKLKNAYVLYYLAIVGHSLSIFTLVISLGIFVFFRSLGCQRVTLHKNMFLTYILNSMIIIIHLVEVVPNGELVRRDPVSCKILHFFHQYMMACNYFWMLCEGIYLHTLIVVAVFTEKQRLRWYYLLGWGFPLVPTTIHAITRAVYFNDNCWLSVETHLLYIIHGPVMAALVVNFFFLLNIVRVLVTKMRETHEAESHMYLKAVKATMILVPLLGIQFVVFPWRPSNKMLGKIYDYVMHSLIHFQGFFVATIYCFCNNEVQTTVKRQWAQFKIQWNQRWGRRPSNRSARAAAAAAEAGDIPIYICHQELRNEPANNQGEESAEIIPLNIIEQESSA
T1 sequence (O60896 24-148 partner): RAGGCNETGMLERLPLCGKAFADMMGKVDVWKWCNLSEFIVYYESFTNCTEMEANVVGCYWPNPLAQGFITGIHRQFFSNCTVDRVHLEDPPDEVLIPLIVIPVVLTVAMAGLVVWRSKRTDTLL

[2] = target: T2, human calcitonin (a) receptor in BHK570 cells (Homo sapiens, UniProt P30988); test: ASSAY (II)a functional assay, human calcitonin receptor (CRE luciferase); format: cell-based; settings: read-out: hCTR funct. EC50
T2 construct: expressed in transfected cells
T2 sequence (P30988 25-474): T1 sequence (P30988 25-474)
Procedure, shortened: (§1)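 Functional agonism was measured by CRE-luciferase reporter luminescence in BHK cells bearing calcitonin receptor, or calcitonin receptor plus RAMP-3 as the amylin 3(a) receptor. Stimulation lasted 3 hours at 37° C.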

rat calcitonin receptor = target: T3, rat calcitonin receptor (Rattus norvegicus, UniProt P32214); test: ASSAY (VIII) binding to the rat calcitonin receptor; settings: Table 7, read-out: rCTR bind IC50
T3 construct: expressed in transfected cells; host or cells: BHK tk'ts 13 (transient, FuGENE 6), membranes
T3 sequence (P32214 25-479 isoform P32214-2 limits assumed): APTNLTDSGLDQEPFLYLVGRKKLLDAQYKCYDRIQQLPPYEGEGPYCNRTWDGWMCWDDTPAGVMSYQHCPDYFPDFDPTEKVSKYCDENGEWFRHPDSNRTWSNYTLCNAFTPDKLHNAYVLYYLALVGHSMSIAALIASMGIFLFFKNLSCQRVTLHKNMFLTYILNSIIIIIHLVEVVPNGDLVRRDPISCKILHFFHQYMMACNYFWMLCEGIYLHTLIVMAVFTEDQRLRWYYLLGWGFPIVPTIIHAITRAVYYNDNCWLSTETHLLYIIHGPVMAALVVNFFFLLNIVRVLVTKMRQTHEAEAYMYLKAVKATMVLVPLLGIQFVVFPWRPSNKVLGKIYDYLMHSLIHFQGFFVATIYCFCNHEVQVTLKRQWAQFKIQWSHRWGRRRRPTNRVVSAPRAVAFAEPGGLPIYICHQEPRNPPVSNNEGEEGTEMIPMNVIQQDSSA
Procedure, shortened: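 Cell membranes for binding came from BHK tk′ts 13 cells harvested approximately 48 hours after transient transfection with the rat receptor.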

[3] = target: T4, human amylin 3(a) receptor (human calcitonin receptor + RAMP-3) in BHK570 cells (Homo sapiens, UniProt O60896+P30988); test: ASSAY (II)a functional assay, human amylin receptor (CRE luciferase); format: cell-based; settings: for EC50: human amylin receptor functional potency, assay (II), read-out: hAmylin-R funct. EC50
T4 construct: expressed in transfected cells
Procedure, shortened: as §1

[4] = Table 5, selectivity, hCTR bind IC50 / hAmylin-R bind IC50
[5] = Table 5a, selectivity, hCTR bind IC50 / hAmylin-R bind IC50
[6] = Table 5b, selectivity, hCTR bind IC50 / hAmylin-R bind IC50
[7] = Table 7, human binding selectivity, included for comparison
[8] = Table 7a (preferred compounds), human binding selectivity, included for comparison
[9] = ratio of human calcitonin receptor binding IC50 to human amylin receptor binding IC50
[10] = hCTR funct. EC50 divided by hAmylin-R funct. EC50
[11] = hCTR funct. EC50 over hAmylin-R funct. EC50
[12] = human functional selectivity: hCTR funct. EC50 / hAmylin-R funct. EC50

IC50 [1] | Ratio hCT/hAmylin binding [1, 4] | Ratio hCT/hAmylin binding [1, 5] | Ratio hCT/hAmylin binding [1, 6] | Ratio hCT/hAmylin binding ([1]; Table 5c, selectivity, hCTR bind IC50 / hAmylin-R bind IC50) | Ratio hCT/hAmylin binding [1, 7] | Ratio hCT/hAmylin binding [1, 8] | Ratio hCT/hAmylin binding [1, 9] | EC50 [2] | IC50 (rat calcitonin receptor) | Ratio hCT/hAmylin funct. [3, 10] | Ratio hCT/hAmylin funct. [3, 11] | EC50 [3] | Ratio hCT/hAmylin funct. [3, 12] | Ratio hCT/hAmylin funct. ([3]; hCTR funct. EC50 / hAmylin-R funct. EC50) | SMILES
0.88 nM | 48.6 | 48.6 | 48.6 | 48.6 | 48.6 | 48.6 | 48.6 | 8.66 nM | 52.4 nM | 26.0 | 26.0 | 0.333 nM | 26.0 | – | CC[C@H](C)[C@H](NC(=O)[C@H](C)NC(=O)CNC(=O)[C@H](Cc1ccccc1)NC(=O)[C@H](CC(N)=O)NC(=O)[C@@H]1CCCN1C(=O)[C@H](CO)NC(=O)[C@H](CO)NC(=O)[C@H](Cc1c[nH]cn1)NC(=O)[C@H](CCCNC(=N)N)NC(=O)[C@H](CC(C)C)NC(=O)[C@H](Cc1ccccc1)NC(=O)[C@H](CC(N)=O)NC(=O)[C@H](C)NC(=O)[C@H](CC(C)C)NC(=O)[C@H](CCCNC(=N)N)NC(=O)[C@H](CCC(N)=O)NC(=O)[C@@H](NC(=O)[C@H](C)NC(=O)[C@@H]1CSSC[C@H](NC(=O)[C@@H](N)CCCCNC(=O)CC[C@H](NC(=O)CC[C@H](NC(=O)CCCCCCCCCCCCCCCCCCC(=O)O)C(=O)O)C(=O)O)C(=O)N[C@@H](CC(N)=O)C(=O)N[C@@H]([C@@H](C)O)C(=O)N[C@@H](C)C(=O)N[C@@H]([C@@H](C)O)C(=O)N1)[C@@H](C)O)C(=O)N1CCC[C@H]1C(=O)N[C@@H](CO)C(=O)N[C@@H](CO)C(=O)N[C@H](C(=O)N1CCC[C@H]1C(=O)N[C@H](C(=O)NCC(=O)N1CCC[C@H]1C(=O)N[C@@H](CCCNC(=N)N)C(=O)N[C@H](C(=O)N[C@@H](Cc1ccc(O)cc1)C(N)=O)[C@@H](C)O)C(C)C)[C@@H](C)O [Example 119] (H-K([γGlu-γGlu-C20 diacid])CNTATCATQRLANFLRHSSPNFGAIPSSTPVGPRTY-NH2; disulfide 2-7)
0.196 nM | 16.7 | 16.7 | 16.7 | – | 16.7 | 16.7 | 16.7 | 1.11 nM | 18.6 nM | 3.9 | 3.9 | 0.288 nM | 3.9 | 3.9 | CC[C@H](C)[C@H](NC(=O)[C@H](C)NC(=O)CNC(=O)[C@H](Cc1ccccc1)NC(=O)[C@H](CC(N)=O)NC(=O)[C@@H]1CCCN1C(=O)[C@H](CO)NC(=O)[C@H](CO)NC(=O)[C@H](Cc1c[nH]cn1)NC(=O)[C@H](CCCNC(=N)N)NC(=O)[C@H](CC(C)C)NC(=O)[C@H](Cc1ccccc1)NC(=O)[C@H](CC(=O)O)NC(=O)[C@H](C)NC(=O)[C@H](CC(C)C)NC(=O)[C@H](CCCNC(=N)N)NC(=O)[C@H](CCC(N)=O)NC(=O)[C@@H](NC(=O)[C@H](C)NC(=O)[C@@H]1CSSC[C@H](NC(=O)[C@@H](N)CCCCNC(=O)CC[C@H](NC(=O)CCCCCCCCCCCCCCCCCCC(=O)O)C(=O)O)C(=O)N[C@@H](CC(N)=O)C(=O)N[C@@H]([C@@H](C)O)C(=O)N[C@@H](C)C(=O)N[C@@H]([C@@H](C)O)C(=O)N1)[C@@H](C)O)C(=O)N1CCC[C@H]1C(=O)N[C@@H](CO)C(=O)N[C@@H](CO)C(=O)N[C@H](C(=O)N[C@@H](CC(N)=O)C(=O)N[C@H](C(=O)NCC(=O)N1CCC[C@H]1C(=O)N[C@@H](CCC(=O)O)C(=O)N[C@H](C(=O)N[C@@H](Cc1ccc(O)cc1)C(N)=O)[C@@H](C)O)C(C)C)[C@@H](C)O [Example 123] (H-K([γGlu-C20 diacid])CNTATCATQRLADFLRHSSPNFGAIPSSTNVGPETY-NH2; disulfide 2-7; N-terminus assumed)
